This passage reports AC50 results from US12344610B2, “APOL1 inhibitors and methods of use” (Maze Therapeutics, Inc., priority 2022, dated 2025).

The term AC50 denotes the concentration at which the activity in the assay is half-maximal.

The target in this assay is T1, APOL1 G2 (Homo sapiens, UniProt O14791, DEL388-389).
T1 construct: expressed in transfected cells; host or cells: HEK293 T-REx clonal line stably expressing GCaMP6f (HEK T-REx/GCaMP6f/APOL1 G2 K6.3), doxycycline induced
T1 sequence (O14791 with tags, fused parts or gaps DEL388-389): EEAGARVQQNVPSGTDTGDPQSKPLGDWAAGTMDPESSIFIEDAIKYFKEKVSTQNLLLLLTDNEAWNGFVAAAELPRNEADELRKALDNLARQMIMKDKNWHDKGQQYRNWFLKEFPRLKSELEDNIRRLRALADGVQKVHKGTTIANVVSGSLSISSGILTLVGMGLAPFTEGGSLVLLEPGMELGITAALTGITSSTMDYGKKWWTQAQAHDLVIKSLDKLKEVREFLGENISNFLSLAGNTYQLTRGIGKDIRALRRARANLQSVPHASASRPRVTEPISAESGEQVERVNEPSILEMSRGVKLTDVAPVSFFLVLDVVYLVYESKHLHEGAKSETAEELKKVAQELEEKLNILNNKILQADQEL
The assay is described as follows: APOL1-mediated calcium transport (calcium influx) assay, HEK T-REx/GCaMP6f/APOL1 G2 K6.3 cells, FLIPR TETRA. Format: cell-based. The settings on record: prevention of calcium influx; geometric mean of at least 2 assay runs; † = average of a technical replicate from a single assay run. An outline of the steps: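 A HEK293 T-REx clone stably expressing GCaMP6f had APOL1 G2 induced with doxycycline (20 ng/mL solution added) for 6 h. Cells were then washed into Ca2+-free Tyrode's buffer (pH 7.4) and preincubated with compounds (duplicate 8-point) for 10 min at room temperature. Ca2+ injection to 5 mM final produced FLIPR GCaMP fluorescence, giving AC50 for influx inhibition (geometric mean, ≥2 runs).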

In the case of `Cc1nc2cc(OCCN3CCC4(CC3)C(=O)Nc3ccc(C#N)cc34)cc(C(F)(F)F)c2n1[C@H]1C[C@@](C)(O)C1` [Compound 443, 1′-[2-({2-methyl-1-[(cis)-3-hydroxy-3-methylcyclobutyl]-7-(trifluoromethyl)-1H-1,3-benzodiazol-5-yl}oxy)ethyl]-2-oxo-1,2-dihydrospiro[indole-3,4′-piperidine]-5-carbonitrile], the AC50 came to 2670 nM.
As to `CNC(=O)N1CCCc2cc(OCCN3CCC4(CC3)C(=O)Nc3ccc(Cl)cc34)ccc21` [Compound 60, 6-(2-{5-chloro-2-oxo-1,2-dihydrospiro[indole-3,4′-piperidin]-1′-yl}ethoxy)-N-methyl-1,2,3,4-tetrahydroquinoline-1-carboxamide], the AC50 stood at 652 nM.
The figure for `C[C@]1(O)C[C@@H](n2cnc3cc(OCCN4CCC5(CC4)C(=O)Nc4ccc(C#N)cc45)cc(C(F)(F)F)c32)C1` [Compound 433, 1′-(2-((1-((cis)-3-hydroxy-3-methylcyclobutyl)-7-(trifluoromethyl)-1H-benzo[d]imidazol-5-yl)oxy)ethyl)-2-oxospiro[indoline-3,4′-piperidine]-5-carbonitrile] is 1300 nM.
In the case of `CS(=O)(=O)c1ccc(OCCN2CCC3(CC2)C(=O)Nc2ccc(C#N)cc23)cc1` [Compound 71, 1′-[2-(4-methanesulfonylphenoxy)ethyl]-2-oxo-1,2-dihydrospiro[indole-3,4′-piperidine]-5-carbonitrile], the half-maximal activity concentration (AC50) worked out at 626 nM.
With `CS(=O)(=O)N1CCCc2cc(OCCN3CCC4(CC3)C(=O)Nc3ccc(Cl)cc34)ccc21` [Compound 53, 5-chloro-1′-{2-[(1-methanesulfonyl-1,2,3,4-tetrahydroquinolin-6-yl)oxy]ethyl}-1,2-dihydrospiro[indole-3,4′-piperidin]-2-one], the AC50 stood at 838 nM.
In the case of `O=C1Nc2ccccc2C12CCN(CCOc1ccc(S(=O)(=O)C(F)F)cc1)CC2` [Compound 44, 1′-[2-(4-difluoromethanesulfonylphenoxy)ethyl]-1,2-dihydrospiro[indole-3,4′-piperidin]-2-one], the AC50 came to 352 nM.
For `C[C@]1(O)C[C@@H](n2cnc3cc(OCCN4CCC5(CC4)C(=O)Nc4ccc(Cl)cc45)cc(C#N)c32)C1` [Compound 439, 5-(2-{5-chloro-2-oxo-1,2-dihydrospiro[indole-3,4′-piperidin]-1′-yl}ethoxy)-1-[(cis)-3-hydroxy-3-methylcyclobutyl]-1H-1,3-benzodiazole-7-carbonitrile], the AC50 came out at 603 nM.
With `CS(=O)(=O)C1(c2ncc(OCCN3CCC4(CC3)C(=O)Nc3ccc(Cl)cc34)cn2)CC1` [Compound 4, 5-chloro-1′-(2-{[2-(1-methanesulfonylcyclopropyl)pyrimidin-5-yl]oxy}ethyl)-1,2-dihydrospiro[indole-3,4′-piperidin]-2-one] the figure was 670 nM; with `Cn1ncc2cc(OCCN3CCC4(CC3)C(=O)Nc3ccc(Cl)cc34)ccc21` [Compound 68, 5-chloro-1′-{2-[(1-methyl-1H-indazol-5-yl)oxy]ethyl}-1,2-dihydrospiro[indole-3,4′-piperidin]-2-one], < 249 nM; with `C[C@]1(O)C[C@@H](n2ncc3cc(OCCN4CCC5(CC4)C(=O)Nc4ccc(Cl)cc45)cnc32)C1` (single isomer, unassigned) [Compound 357, 5-chloro-1′-[2-({1-[(cis)-3-hydroxy-3-methylcyclobutyl]-1H-pyrazolo[3,4-b]pyridin-5-yl}oxy)ethyl]-1,2-dihydrospiro[indole-3,4′-piperidin]-2-one], 412 nM.
With `[2H]C([2H])(Oc1cnc2c(c1)CCC(=O)N2[C@H]1C[C@@](C)(O)C1)C([2H])([2H])N1CCC2(CC1)C(=O)Nc1ccc(Cl)cc12` [Compound 426, 5-chloro-1′-[2-({7-oxo-8-[(cis)-3-hydroxy-3-methylcyclobutyl]-5,6,7,8-tetrahydro-1,8-naphthyridin-3-yl}oxy)(1,1,2,2-^2H4)ethyl]-1,2-dihydrospiro[indole-3,4′-piperidin]-2-one] the figure was 597 nM; with `[2H]C([2H])([2H])[C@]1(O)C[C@@H](N2C(=O)CCc3cc(OCCN4CCC5(CC4)C(=O)Nc4ccc(Cl)cc45)cnc32)C1` [Compound 461, 5-chloro-1′-[2-({7-oxo-8-[(cis)-3-hydroxy-3-(^2H3)methylcyclobutyl]-5,6,7,8-tetrahydro-1,8-naphthyridin-3-yl}oxy)ethyl]-1,2-dihydrospiro[indole-3,4′-piperidin]-2-one], 676 nM; with `Cc1ccc2c(c1)C1(CCN(CCOc3ccc(S(C)(=O)=O)cc3)CC1)C(=O)N2` [Compound 66, 1′-[2-(4-methanesulfonylphenoxy)ethyl]-5-methyl-1,2-dihydrospiro[indole-3,4′-piperidin]-2-one], 461 nM.
`O=C1CCc2cc(OCCN3CCC4(CC3)C(=O)Nc3ccc(Cl)cc34)cnc2N1C1CC(CO)C1` (stereo not drawn) [Compound 326, 5-chloro-1′-[2-({8-[3-(hydroxymethyl)cyclobutyl]-7-oxo-5,6,7,8-tetrahydro-1,8-naphthyridin-3-yl}oxy)ethyl]-1,2-dihydrospiro[indole-3,4′-piperidin]-2-one]: the AC50 is 680 nM.
Consider `O=C1Nc2ccc(Cl)cc2C12CCN(CCOc1cnc(N3CC4(CC(O)C4)C3)nc1)CC2` [Compound 396, 5-chloro-1′-{2-[(2-{6-hydroxy-2-azaspiro[3.3]heptan-2-yl}pyrimidin-5-yl)oxy]ethyl}-1,2-dihydrospiro[indole-3,4′-piperidin]-2-one], for which the concentration at half-maximal activity (AC50) was found to be 531 nM.
The figure for `C[C@]1(O)C[C@@H](n2ccc3cc(OCCN4CCC5(CC4)C(=O)Nc4ccc(C#N)cc45)cnc32)C1` [Compound 410, 2-oxo-1′-[2-({1-[(cis)-3-hydroxy-3-methylcyclobutyl]-1H-pyrrolo[2,3-b]pyridin-5-yl}oxy)ethyl]-1,2-dihydrospiro[indole-3,4′-piperidine]-5-carbonitrile] is 623 nM.
Take `C[C@]1(O)C[C@@H](N2C(=O)Cc3cc(OCCN4CCC5(CC4)C(=O)Nc4ccc(C(F)F)cc45)cnc32)C1` [Compound 346, 5-(difluoromethyl)-1′-[2-({2-oxo-1-[(cis)-3-hydroxy-3-methylcyclobutyl]-1H,2H,3H-pyrrolo[2,3-b]pyridin-5-yl]oxy)ethyl]-1,2-dihydrospiro[indole-3,4′-piperidin]-2-one]: the AC50 amounted to 557 nM.
With `CC(c1ncc(OCCN2CCC3(CC2)C(=O)Nc2ccc(Cl)cc23)cn1)S(C)(=O)=O` (stereo not drawn) [Compound 1, 5-Chloro-1′-(2-{[2-(1-methanesulfonylethyl)pyrimidin-5-yl]oxy}ethyl)-1,2-dihydrospiro[indole-3,4′-piperidin]-2-one], the AC50 is 703 nM.
For `CP(C)(=O)C1(c2ccc(OCCN3CCC4(CC3)C(=O)Nc3ccc(Cl)cc34)cc2)CC1` [Compound 343, 5-chloro-1′-(2-{4-[1-(dimethylphosphoryl)cyclopropyl]phenoxy}ethyl)-1,2-dihydrospiro[indole-3,4′-piperidin]-2-one], the AC50 was found to be 437 nM.
As to `CCC1(O)CN(c2ncc(OCCN3CCC4(CC3)C(=O)Nc3ccc(Cl)cc34)cn2)C1` [Compound 397, 5-chloro-1′-(2-{[2-(3-ethyl-3-hydroxyazetidin-1-yl)pyrinlidin-5-yl]oxy}ethyl)-1,2-dihydrospiro[indole-3,4′-piperidin]-2-one], the AC50 was 416 nM.
On to `CC(c1ccc(OCCN2CCC3(CC2)C(=O)Nc2ccc(Cl)cc23)cc1)S(C)(=O)=O` (single isomer, unassigned) [Compound 39, 5-chloro-1′-(2-{4-[(1S) or (1R)-1-methanesulfonylethyl]phenoxy}ethyl)-1,2-dihydrospiro[indole-3,4′-piperidin]-2-one], for which the half-maximal activity concentration (AC50) was found to be 745 nM.
On to `C[C@]1(O)C[C@@H](n2c(=O)ccc3cc(OCCN4CCC5(CC4)C(=O)Nc4ccc(OC(F)F)cc45)cnc32)C1` [Compound 328, 5-(difluoromethoxy)-1′-[2-({7-oxo-8-[(cis)-3-hydroxy-3-methylcyclobutyl]-7,8-dihydro-1,8-naphthyridin-3-yl}oxy)ethyl]-1,2-dihydrospiro[indole-3,4′-piperidin]-2-one], for which the AC50 was found to be 748 nM.
Turning to `C[C@]1(O)C[C@H](n2ncc3cc(OCCN4CCC5(CC4)C(=O)Nc4ccc(Cl)cc45)cnc32)C1` (single isomer, unassigned) [Compound 408, 5-chloro-1′-[2-({1-[(trans)-3-hydroxy-3-methylcyclobutyl]-1H-pyrazolo[3,4-b]pyridin-5-yl}oxy)ethyl]-1,2-dihydrospiro[indole-3,4′-piperidin]-2-one], the AC50 amounted to 283 nM.
`C[C@]1(O)C[C@@H](N2C(=O)C3(CC3)c3cc(OCCN4CCC5(CC4)C(=O)Nc4ccc(Cl)cc45)cnc32)C1` [Compound 460, 5-chloro-1′-(2-{2′-oxo-1′-[(cis)-3-hydroxy-3-methylcyclobutyl]-1′,2′-dihydrospiro[cyclopropane-1,3′-pyrrolo[2,3-b]pyridin]-5′-yloxy}ethyl)-1,2-dihydrospiro[indole-3,4′-piperidin]-2-one]: the AC50 was 317 nM.
